Biological target: PI3Kα E545K (Homo sapiens, UniProt P42336, E545K)
Test: PI3Kα E545K mutant in vitro cell based assay, MDA-MB-361 cells
Set-up: MDA-MB-361 (ATCC-HTB-27) cell line (PI3Kα E545K); host or cells: MDA-MB-361
Details: MDA-MB-361 cell line, 0% FBS, no insulin, 3 hours treatment
Excerpt: PI3K-Alpha Kinase (PI3Kα) Activity: Wild-Type PI3Kα, H1047R Mutant PI3Kα, and E545K Mutant PI3Kα In Vitro Cell Based Assays and Determination of IC50 Values for Inhibitors
The MDA-MB-453 (ATCC-HTB-131) cell line (PI3Kα H1047R) and MCF-7 (ATCC-HTB-22) cell line (PI3Kα E545K), MDA-MB-361 (ATCC-HTB-27) cell line (PI3Kα E545K), and SKBR3 (ATCC-HTB-30) cell line (wild type PI3Kα) were obtained from the American Type Culture Collection (Manassas, VA). MDA-MB-453 cells were maintained in Dulbecco's Modified Eagle Media (DMEM, Gibco 12430) supplemented with 10% Fetal Bovine Serum, heat inactivated (FBS HI, Gibco 10082), 1× non-essential amino acids (NEAA, Gibco 11140), 1 mM sodium pyruvate (Gibco 11360) and 1× Anti-Anti (Gibco 15240). MCF-7 cells were maintained in Minimum Essential Media (MEM) (Gibco 11095) supplemented with 10% Fetal Bovine Serum, heat inactivated (FBS HI, Gibco 10082), 1× non-essential amino acids (NEAA, Gibco 11140), 1 mM sodium pyruvate (Gibco 11360), 1× Anti-Anti (Gibco 15240) and 10 μg/mL human insulin (Sigma I 9278). MDA-MB-361 cells were maintained in Dulbecco's Modified Eagle Media (DMEM, Gibco 12430) supplemented with 20% Fetal Bovine Serum, heat inactivated (FBS HI, Gibco 10082), 1× non-essential amino acids (NEAA, Gibco 11140), 1 mM sodium pyruvate (Gibco 11360) and 1× Anti-Anti (Gibco 15240). SKBR3 cells were maintained in McCoy's 5A (Gibco 16600) supplemented with 10% Fetal Bovine Serum, heat inactivated (FBS HI, Gibco 10082), and 1× Anti-Anti (Gibco 15240). Cultures were maintained in a humidified incubator at 37° C. under 5% CO2/95% air.
For compound testing in 0% FBS, MDA-MB-453, MCF-7 and SKBR3 cells were seeded at a density of 1.5×10^4, 1.0×10^4, and 1.0×10^4 cells, respectively, per well in white 384-well plates in 20 μl of Minimum Essential Media (MEM) assay media with 1×NEAA, 1 mM sodium pyruvate, and 1 μg/mL human insulin (Sigma 19278) (Assay Medium); while MDA-MB-361 cells were seeded at a density of 1.5×10^4 per well in white 384-well plates in 20 μl Assay Medium without insulin. After plating, cells were allowed to attach overnight. Compounds dissolved in 10 mM stock solutions in DMSO were serially diluted 1:3 in DMSO to generate a 10-point dilution series and plated using an acoustic liquid handler system (Echo 550 Series Liquid Handler, Labcyte). A 5× intermediate compound dilution plate in MEM with 1×NEAA and 1 mM sodium pyruvate (150 μM starting compound concentration in 1.5% DMSO) was then prepared. Five μl of the intermediate serially diluted compounds were added to the cell plate to final concentrations ranging from […] in 0.3% DMSO. 0.3% DMSO alone was used to establish the maximum (MAX) signal and GDC-0032 at a final concentration of 1 μM was used as a reference compound for the minimum (MIN) signal. After 3 hours treatment, the medium was removed, and the cells were lysed in 10 μL of 1× SureFire Lysis buffer with shaking for 10 minutes at room temperature. The Acceptor Mix (Reaction Buffer 1+Reaction Buffer 2+Activation Buffer+SureFire Ultra Acceptor Beads) was prepared by diluting Activation buffer 25-fold in combined Reaction Buffer 1 and Reaction Buffer 2.
The Acceptor beads were diluted 50-fold in the combined Reaction Buffers. Five μL of Acceptor Mix was added to each well, the plate was sealed and covered with foil and incubated for 1 hour at room temperature. The Donor Mix (dilution buffer+SureFire Ultra Donor Beads) was prepared by diluting Donor Beads 50-fold in dilution buffer. Five μL of the Donor Mix was added to each well and the plate sealed and covered with foil and incubated for 1-2 hours at room temperature in the dark. The plates were read on a Neo2 plate reader instrument from Biotek using standard AlphaLisa settings.
Compounds were tested in duplicate and the % inhibition at each compound concentration was used to generate two dose response curves. One IC50 was generated using average % inhibition at each compound concentration. […]

PI3Kα E545K, sequence (P42336 whole entry E545K): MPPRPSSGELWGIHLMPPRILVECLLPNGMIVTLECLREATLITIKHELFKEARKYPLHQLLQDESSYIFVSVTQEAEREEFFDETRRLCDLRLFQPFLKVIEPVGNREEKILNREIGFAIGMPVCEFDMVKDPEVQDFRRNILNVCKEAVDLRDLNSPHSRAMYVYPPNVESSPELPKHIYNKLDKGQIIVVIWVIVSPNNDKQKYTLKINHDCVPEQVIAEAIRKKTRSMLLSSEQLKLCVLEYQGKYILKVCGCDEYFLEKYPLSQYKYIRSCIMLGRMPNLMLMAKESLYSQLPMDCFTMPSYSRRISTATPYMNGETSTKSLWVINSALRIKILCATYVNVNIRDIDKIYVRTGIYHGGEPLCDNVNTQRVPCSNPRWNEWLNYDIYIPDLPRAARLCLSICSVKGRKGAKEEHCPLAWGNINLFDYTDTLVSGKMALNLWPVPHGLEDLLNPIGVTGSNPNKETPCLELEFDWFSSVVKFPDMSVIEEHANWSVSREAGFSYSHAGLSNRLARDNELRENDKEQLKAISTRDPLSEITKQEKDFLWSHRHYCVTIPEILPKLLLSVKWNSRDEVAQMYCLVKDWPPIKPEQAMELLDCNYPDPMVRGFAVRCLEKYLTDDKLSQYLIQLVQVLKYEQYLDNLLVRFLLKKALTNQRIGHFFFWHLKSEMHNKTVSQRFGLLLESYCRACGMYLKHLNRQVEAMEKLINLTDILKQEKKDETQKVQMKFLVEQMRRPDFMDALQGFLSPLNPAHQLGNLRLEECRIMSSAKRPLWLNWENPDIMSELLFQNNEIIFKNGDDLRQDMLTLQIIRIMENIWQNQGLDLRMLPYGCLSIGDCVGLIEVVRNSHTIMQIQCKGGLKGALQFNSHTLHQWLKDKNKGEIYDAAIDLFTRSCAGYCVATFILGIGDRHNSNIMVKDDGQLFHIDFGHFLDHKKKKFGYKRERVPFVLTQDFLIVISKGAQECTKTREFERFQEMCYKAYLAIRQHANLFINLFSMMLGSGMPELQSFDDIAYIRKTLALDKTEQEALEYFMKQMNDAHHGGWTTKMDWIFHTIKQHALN
PI3Kα E545K, sequence (P27986 whole entry partner): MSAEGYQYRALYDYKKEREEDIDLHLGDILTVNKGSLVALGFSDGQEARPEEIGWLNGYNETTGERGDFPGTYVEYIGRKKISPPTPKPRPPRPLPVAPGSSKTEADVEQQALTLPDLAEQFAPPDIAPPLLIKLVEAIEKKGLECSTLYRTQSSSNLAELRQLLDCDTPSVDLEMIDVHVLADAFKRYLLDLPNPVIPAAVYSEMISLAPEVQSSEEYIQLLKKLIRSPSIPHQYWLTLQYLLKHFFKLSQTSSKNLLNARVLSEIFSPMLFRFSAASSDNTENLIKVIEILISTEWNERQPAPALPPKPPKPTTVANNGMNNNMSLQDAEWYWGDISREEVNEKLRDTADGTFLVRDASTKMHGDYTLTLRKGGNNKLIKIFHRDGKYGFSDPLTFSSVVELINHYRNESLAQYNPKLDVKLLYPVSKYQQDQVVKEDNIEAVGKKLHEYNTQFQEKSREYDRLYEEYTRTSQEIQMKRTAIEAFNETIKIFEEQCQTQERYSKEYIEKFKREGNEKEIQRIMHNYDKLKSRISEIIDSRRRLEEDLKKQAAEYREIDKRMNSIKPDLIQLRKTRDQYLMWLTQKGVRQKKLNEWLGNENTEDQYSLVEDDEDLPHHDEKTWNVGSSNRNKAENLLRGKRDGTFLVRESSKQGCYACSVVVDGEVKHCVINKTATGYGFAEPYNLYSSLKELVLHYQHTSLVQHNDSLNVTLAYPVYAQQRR

| SMILES | IC50 |
| --- | --- |
| Cc1cc([C@@H](C)Oc2ccc(Cl)nc2C(=O)NOCC2CC2)c2oc(-c3ccc4nn(C)cc4c3)c(C)c(=O)c2c1 [Example 28A, 6-Chloro-N-(cyclopropylmethoxy)-3-[(1R)-1-[3,6-dimethyl-2-(2-methylindazol-5-yl)-4-oxo-chromen-8-yl]ethoxy]pyridine-2-carboxamide] | < 500 nM |
| Cc1cc([C@@H](C)Oc2ccc(Cl)nc2S(N)(=O)=O)c2oc(-c3cnn4c3COCC4)c(C)c(=O)c2c1 [Example 3B, 6-Chloro-3-[(1R)-1-[2-(6,7-dihydro-4H-pyrazolo[5,1-c][1,4]oxazin-3-yl)-3,6-dimethyl-4-oxo-chromen-8-yl]ethoxy]pyridine-2-sulfonamide] | < 500 nM |
| Cc1cc([C@@H](C)Oc2ccc(Cl)nc2C(N)=O)c2oc(-c3ccn4nc(C)cc4c3)c(C)c(=O)c2c1 [Example 76C, 6-Chloro-3-[(1R)-1-[3,6-dimethyl-2-(2-methylpyrazol[1,5-a]pyridin-5-yl)-4-oxo-chromen-8-yl]ethoxy]pyridine-2-carboxamide] | < 500 nM |
| Cc1cc([C@@H](C)Oc2ccc(Cl)nc2C(N)=O)c2oc(-c3ccc4c(c3)OCCN4C)c(C)c(=O)c2c1 [Example 104A, 6-Chloro-3-[(1R)-1-[3,6-dimethyl-2-(4-methyl-2,3-dihydro-1,4-benzoxazin-7-yl)-4-oxo-chromen-8-yl]ethoxy]pyridine-2-carboxamide] | < 500 nM |
| Cc1cc([C@@H](C)Oc2ccc(Cl)nc2C(N)=O)c2oc(-c3ccc4cc[nH]c(=O)c4c3)c(C)c(=O)c2c1 [Example 120A, 6-Chloro-3-[(1R)-1-[3,6-dimethyl-4-oxo-2-(1-oxo-2H-isoquinolin-7-yl)chromen-8-yl]ethoxy]pyridine-2-carboxamide] | < 500 nM |
| Cc1cc([C@@H](C)Oc2ccc(Cl)nc2S(N)(=O)=O)c2oc(-c3cnn(C)c3C)c(C)c(=O)c2c1 [Example 18C, 6-Chloro-3-[(1R)-1-[2-(1,5-dimethylpyrazol-4-yl)-3,6-dimethyl-4-oxo-chromen-8-yl]ethoxy]pyridine-2-sulfonamide] | < 500 nM |
| Cc1cc([C@@H](C)Oc2ccc(Cl)nc2S(N)(=O)=O)c2oc(-c3ccccc3)c(C)c(=O)c2c1 [Example 13A, 6-Chloro-3-[(1R)-1-(3,6-dimethyl-4-oxo-2-phenyl-chromen-8-yl)ethoxy]pyridine-2-sulfonamide] | < 500 nM |
| Cc1cc([C@@H](C)Oc2ccc(C)nc2S(N)(=O)=O)c2oc(-c3ccccc3)c(C)c(=O)c2c1 [Example 122C, 3-[(1R)-1-(3,6-Dimethyl-4-oxo-2-phenyl-chromen-8-yl)ethoxy]-6-methyl-pyridine-2-sulfonamide] | < 500 nM |
| Cc1cc([C@@H](C)Oc2ccc(Cl)nc2S(N)(=O)=O)c2oc(-c3cnc4c(c3)OCCO4)c(C)c(=O)c2c1 [Example 6B] | < 500 nM |
| Cc1cc([C@@H](C)Oc2ccc(Cl)nc2C(N)=O)c2oc(-c3cnn(C4CC4)c3)c(C)c(=O)c2c1 [Example 51A, 6-Chloro-3-[(1R)-1-[2-(1-cyclopropylpyrazol-4-yl)-3,6-dimethyl-4-oxo-chromen-8-yl]ethoxy]pyridine-2-carboxamide] | < 500 nM |
| Cc1cc([C@@H](C)Oc2ccc(Cl)nc2S(N)(=O)=O)c2oc(-c3cnn(C[C@]45C[C@H](CO4)C5)c3)c(C)c(=O)c2c1 [Example 118C, 6-Chloro-3-[(1R)-1-[3,6-dimethyl-2-[1-(2-oxabicyclo[2.1.1]hexan-1-ylmethyl)pyrazol-4-yl]-4-oxo-chromen-8-yl]ethoxy]pyridine-2-sulfonamide] | < 500 nM |
| Cc1cc([C@@H](C)Oc2ccc(Cl)nc2S(N)(=O)=O)c2oc(-c3cnc(OC(C)C)nc3)c(C)c(=O)c2c1 [Example 23C, 6-Chloro-3-[(1R)-1-[2-(2-isopropoxypyrimidin-5-yl)-3,6-dimethyl-4-oxo-chromen-8-yl]ethoxy]pyridine-2-sulfonamide] | < 500 nM |
| Cc1cc([C@@H](C)Oc2ccc(Cl)nc2C(N)=O)c2oc(-c3ccc4nn([C@H]5C[C@H](O)C5)cc4c3)c(C)c(=O)c2c1 [Example 134C, 6-Chloro-3-[(1R)-1-[2-[2-(3-hydroxycyclobutyl)indazol-5-yl]-3,6-dimethyl-4-oxo-chromen-8-yl]ethoxy]pyridine-2-carboxamide] | < 500 nM |

The remaining lines, values ahead:

| IC50 | SMILES |
| --- | --- |
| < 500 nM | CONS(=O)(=O)c1nc(Cl)ccc1O[C@H](C)c1cc(C)cc2c(=O)c(C)c(-c3cnn(CC(C)(C)O)c3)oc12 [Example 121C, 6-Chloro-3-[(1R)-1-[2-[1-(2-hydroxy-2-methyl-propyl)pyrazol-4-yl]-3,6-dimethyl-4-oxo-chromen-8-yl]ethoxy]-N-methoxy-pyridine-2-sulfonamide] |
| < 500 nM | Cc1cc([C@@H](C)Oc2ccc(Cl)nc2C(N)=O)c2oc(-c3ccc4occc4c3)c(C)c(=O)c2c1 [Example 61C, 3-[(1R)-1-[2-(Benzofuran-5-yl)-3,6-dimethyl-4-oxo-chromen-8-yl]ethoxy]-6-chloro-pyridine-2-carboxamide] |
| < 500 nM | Cc1cc([C@@H](C)Oc2ccc(Cl)nc2C(N)=O)c2oc(-c3ccc4nn(C5COC5)cc4c3)c(C)c(=O)c2c1 [Example 77C, 6-Chloro-3-[(1R)-1-[3,6-dimethyl-2-[2-(oxetan-3-yl)indazol-5-yl]-4-oxo-chromen-8-yl]ethoxy]pyridine-2-carboxamide] |
| < 500 nM | Cc1cc([C@@H](C)Oc2ccc(Cl)nc2NC(=O)CO)c2oc(-c3cnn(C)c3)c(C)c(=O)c2c1 [Example 27B, N-[6-Chloro-3-[(1R)-1-[3,6-dimethyl-2-(1-methylpyrazol-4-yl)-4-oxo-chromen-8-yl]ethoxy]-2-pyridyl]-2-hydroxy-acetamide] |
| < 500 nM | Cc1cc([C@@H](C)Oc2ccc(Cl)nc2S(N)(=O)=O)c2oc(-c3cnn(CC4(C#N)CC4)c3)c(C)c(=O)c2c1 [Example 124C, 6-Chloro-3-[(1R)-1-[2-[1-[(1-cyanocyclopropyl)methyl]pyrazol-4-yl]-3,6-dimethyl-4-oxo-chromen-8-yl]ethoxy]pyridine-2-sulfonamide] |
| < 500 nM | Cc1cc([C@@H](C)Oc2cccnc2-c2ccccc2F)c2oc(-c3ccc(=O)[nH]c3)c(C)c(=O)c2c1 [Example 30A] |
| < 500 nM | Cc1cc([C@@H](C)Oc2ccc(Cl)nc2C(N)=O)c2oc(-c3ccc4c(c3)OC(F)(F)O4)c(C)c(=O)c2c1 [Example 60A, 6-Chloro-3-[(1R)-1-[2-(2,2-difluoro-1,3-benzodioxol-5-yl)-3,6-dimethyl-4-oxo-chromen-8-yl]ethoxy]pyridine-2-carboxamide] |
| < 500 nM | Cc1cc([C@@H](C)Oc2ccc(Cl)nc2C(N)=O)c2oc(-c3ccc4nn(C)nc4c3)c(C)c(=O)c2c1 [Example 50A, 6-Chloro-3-[(1R)-1-[3,6-dimethyl-2-(2-methylbenzotriazol-5-yl)-4-oxo-chromen-8-yl]ethoxy]pyridine-2-carboxamide] |
| < 500 nM | Cc1cc([C@@H](C)Oc2ccc(Cl)nc2S(N)(=O)=O)c2oc(-c3cnn(C[C@H](C)O)c3)c(C)c(=O)c2c1 [Example 7B, 6-Chloro-3-[(1R)-1-[2-[1-[(2S)-2-hydroxypropyl]pyrazol-4-yl]-3,6-dimethyl-4-oxo-chromen-8-yl]ethoxy]pyridine-2-sulfonamide] |

Source: patent US20240182460A1, “ALLOSTERIC CHROMENONE INHIBITORS OF PHOSPHOINOSITIDE 3-KINASE (PI3K) FOR THE TREATMENT OF DISEASE” (PETRA PHARMA CORPORATION, priority 2022, published 2024)
